Experimental data taken from ChEMBL document CHEMBL1201862, “PubChem BioAssay data set” (2004).
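Where inhibition never reached the appropriate level, the endpoint shown equals the highest concentration tested. Otherwise, values were interpolated linearly from a five-concentration, 48-hour dose response in 96-well plates. Here, GI50 denotes the concentration required for 50% inhibition of growth.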 Calls of active or inactive are those of the source. No stated cut-off is given here; in the data, active = GI50 up to about 1.1 µM and inactive = higher.

Columns and labels:
Experiment in all cases: growth of human tumour cells (NCI), 48 h
SNB-19 = system: SNB-19
NCI-H23 = system: NCI-H23
SK-MEL-2 = system: SK-MEL-2
UO-31 = system: UO-31
SW-620 = system: SW-620
U-251 = system: U-251
OVCAR-8 = system: OVCAR-8
HOP-92 = system: HOP-92
TK-10 = system: TK-10
SF-268 = system: SF-268
OVCAR-4 = system: OVCAR-4
OVCAR-5 = system: OVCAR-5
CCRF-CEM = system: CCRF-CEM
LOX IMVI = system: LOX IMVI
HT-29 = system: HT-29
SK-MEL-28 = system: SK-MEL-28
RPMI-8226 = system: RPMI-8226
CAKI-1 = system: CAKI-1
SK-OV-3 = system: SK-OV-3
Malme-3M = system: Malme-3M

| SMILES | GI50 (SNB-19) | GI50 (NCI-H23) | GI50 (SK-MEL-2) | GI50 (UO-31) | GI50 (SW-620) | GI50 (U-251) | GI50 (OVCAR-8) | GI50 (HOP-92) | GI50 (TK-10) | GI50 (SF-268) | GI50 (OVCAR-4) | GI50 (OVCAR-5) | GI50 (CCRF-CEM) | GI50 (LOX IMVI) | GI50 (HT-29) | GI50 (SK-MEL-28) | GI50 (RPMI-8226) | GI50 (CAKI-1) | GI50 (SK-OV-3) | GI50 (Malme-3M) |
| --- | --- | --- | --- | --- | --- | --- | --- | --- | --- | --- | --- | --- | --- | --- | --- | --- | --- | --- | --- | --- |
| COc1ccc(C2=NN(c3nsc4ccccc34)C(=O)CC2)cc1 | 76 µM (inactive) | > 100 µM (inactive) | > 100 µM (inactive) | 59.2 µM (inactive) | > 100 µM (inactive) | 91.4 µM (inactive) | > 100 µM (inactive) | 92 µM (inactive) | > 100 µM (inactive) | > 100 µM (inactive) | > 100 µM (inactive) | > 100 µM (inactive) | 82.6 µM (inactive) | 89.1 µM (inactive) | > 100 µM (inactive) | > 100 µM (inactive) | 30.5 µM (inactive) | – | – | – |
| NN/C(=N\S(=O)(=O)c1cccc2nsnc12)Nc1ccc(Cl)cc1 | > 100 µM (inactive) | > 100 µM (inactive) | > 100 µM (inactive) | > 100 µM (inactive) | > 100 µM (inactive) | > 100 µM (inactive) | > 100 µM (inactive) | > 100 µM (inactive) | > 100 µM (inactive) | 26.2 µM (inactive) | > 100 µM (inactive) | > 100 µM (inactive) | > 100 µM (inactive) | > 100 µM (inactive) | > 100 µM (inactive) | > 100 µM (inactive) | > 100 µM (inactive) | > 100 µM (inactive) | > 100 µM (inactive) | – |
| CCCCCCCCCCCCCCCCCC(=O)OCC(COC(=O)CCCN)OC(=O)CCCN (stereo unspecified) | 21.8 µM (inactive) | 16.4 µM (inactive) | – | 1.96 µM (inactive) | 19.6 µM (inactive) | 20.6 µM (inactive) | 18.5 µM (inactive) | 13.4 µM (inactive) | 20.8 µM (inactive) | 23.1 µM (inactive) | 22 µM (inactive) | 15.9 µM (inactive) | 28.8 µM (inactive) | 18.5 µM (inactive) | 16.1 µM (inactive) | 19.9 µM (inactive) | – | 18.7 µM (inactive) | 18.3 µM (inactive) | 23.2 µM (inactive) |
| COc1c(Cl)cc(Cl)cc1S(=O)O | > 100 µM (inactive) | > 100 µM (inactive) | > 100 µM (inactive) | > 100 µM (inactive) | – | > 100 µM (inactive) | – | – | > 100 µM (inactive) | > 100 µM (inactive) | > 100 µM (inactive) | > 100 µM (inactive) | > 100 µM (inactive) | > 100 µM (inactive) | > 100 µM (inactive) | > 100 µM (inactive) | – | – | > 100 µM (inactive) | > 100 µM (inactive) |
| CC(C)(C)[Si](OC1CCOC1=O)(c1ccccc1)c1ccccc1 (stereo unspecified) | 29.6 µM (inactive) | 19.4 µM (inactive) | 16.6 µM (inactive) | 27.1 µM (inactive) | 26.5 µM (inactive) | 14.7 µM (inactive) | 23.4 µM (inactive) | > 10 µM (inactive) | 22.5 µM (inactive) | 23 µM (inactive) | – | 26.7 µM (inactive) | 25.6 µM (inactive) | 15.5 µM (inactive) | 15.3 µM (inactive) | 22.3 µM (inactive) | 29 µM (inactive) | – | 33.9 µM (inactive) | 16.5 µM (inactive) |
| CC(C(=O)n1nnc2ccccc21)N(c1ccccc1)c1ccccc1 (stereo unspecified) | 48.3 µM (inactive) | 56.8 µM (inactive) | > 100 µM (inactive) | > 100 µM (inactive) | > 100 µM (inactive) | 43.5 µM (inactive) | > 100 µM (inactive) | – | > 100 µM (inactive) | > 100 µM (inactive) | – | > 100 µM (inactive) | 83.4 µM (inactive) | 76.6 µM (inactive) | > 100 µM (inactive) | > 100 µM (inactive) | 52.7 µM (inactive) | > 100 µM (inactive) | > 100 µM (inactive) | 84.7 µM (inactive) |
| Cc1cc(O)c(C(c2cccnc2)c2c(O)cc(C)[nH]c2=O)c(=O)[nH]1 | > 100 µM (inactive) | > 100 µM (inactive) | – | > 100 µM (inactive) | – | > 100 µM (inactive) | > 100 µM (inactive) | – | > 100 µM (inactive) | > 100 µM (inactive) | > 100 µM (inactive) | > 100 µM (inactive) | > 100 µM (inactive) | > 100 µM (inactive) | > 100 µM (inactive) | > 100 µM (inactive) | > 100 µM (inactive) | > 100 µM (inactive) | > 100 µM (inactive) | > 100 µM (inactive) |
| C=C1CC(OC)(C(O)C(=O)N[C@H]2OCO[C@H]3C2O[C@H](C[C@@H](COC)OC)C(C)(C)C3OC)O[C@H](C)[C@@H]1C (stereo partly specified) | < 0.00482 µM (active) | < 0.00482 µM (active) | – | < 0.00482 µM (active) | < 0.00482 µM (active) | < 0.00482 µM (active) | < 0.00482 µM (active) | – | – | < 0.00482 µM (active) | < 0.00482 µM (active) | < 0.00482 µM (active) | < 0.00482 µM (active) | < 0.00482 µM (active) | < 0.00482 µM (active) | < 0.00482 µM (active) | < 0.00482 µM (active) | < 0.00482 µM (active) | – | – |
| NS(=O)(=O)c1cc2c(cc1Cl)NC(C(=O)NNC(=O)c1ccncc1)=NS2(=O)=O | > 100 µM (inactive) | > 100 µM (inactive) | > 100 µM (inactive) | > 100 µM (inactive) | > 100 µM (inactive) | – | > 100 µM (inactive) | > 100 µM (inactive) | > 100 µM (inactive) | > 100 µM (inactive) | > 100 µM (inactive) | – | > 100 µM (inactive) | > 100 µM (inactive) | > 100 µM (inactive) | > 100 µM (inactive) | – | > 100 µM (inactive) | > 100 µM (inactive) | > 100 µM (inactive) |
| Cc1nc2cccc(F)c2c(=O)n1C1CCCCNC1=O (stereo unspecified) | > 10 µM (inactive) | > 10 µM (inactive) | > 10 µM (inactive) | > 10 µM (inactive) | > 10 µM (inactive) | > 10 µM (inactive) | > 10 µM (inactive) | > 10 µM (inactive) | > 10 µM (inactive) | > 10 µM (inactive) | > 10 µM (inactive) | > 10 µM (inactive) | > 10 µM (inactive) | > 10 µM (inactive) | > 10 µM (inactive) | > 10 µM (inactive) | > 10 µM (inactive) | > 10 µM (inactive) | > 10 µM (inactive) | – |
| CC1CC(NC2CCCCC2)=Nc2ccccc2N1Cc1ccccc1 (stereo unspecified) | 11.3 µM (inactive) | 7.33 µM (inactive) | 11.2 µM (inactive) | 4.66 µM (inactive) | 6.37 µM (inactive) | 7.16 µM (inactive) | 6.59 µM (inactive) | – | 12.3 µM (inactive) | 4.06 µM (inactive) | 5.78 µM (inactive) | 5.09 µM (inactive) | 4.13 µM (inactive) | 2.11 µM (inactive) | 2.82 µM (inactive) | 4.38 µM (inactive) | 2.6 µM (inactive) | 5.46 µM (inactive) | 11.2 µM (inactive) | 1.49 µM (inactive) |
| C=CCN1C(=O)/C(=C/c2ccc(OC)cc2)NC1=S | > 100 µM (inactive) | 58.3 µM (inactive) | > 100 µM (inactive) | 61.4 µM (inactive) | > 100 µM (inactive) | 82.2 µM (inactive) | 25.7 µM (inactive) | 14.5 µM (inactive) | > 100 µM (inactive) | > 100 µM (inactive) | 54.5 µM (inactive) | > 100 µM (inactive) | < 0.01 µM (active) | 56.1 µM (inactive) | 57.9 µM (inactive) | > 100 µM (inactive) | 35.2 µM (inactive) | > 100 µM (inactive) | > 100 µM (inactive) | – |
| CC(C)CC(NC(=O)OCc1ccccc1)C(=O)NCCCCC(N)C(=O)NC(CCCCNC(=O)C(CC(C)C)NC(=O)OCc1ccccc1)C(=O)NC(CCCCNC(=O)C(CC(C)C)NC(=O)OCc1ccccc1)C(=O)NC(CCCCNC(=O)C(CC(C)C)NC(=O)OCc1ccccc1)C(=O)NC(CCCCNC(=O)C(CC(C)C)NC(=O)OCc1ccccc1)C(=O)NC(CCCCNC(=O)C(CC(C)C)NC(=O)OCc1ccccc1)C(=O)O (stereo unspecified) | > 100 µM (inactive) | > 100 µM (inactive) | > 100 µM (inactive) | > 100 µM (inactive) | > 100 µM (inactive) | > 100 µM (inactive) | > 100 µM (inactive) | – | > 100 µM (inactive) | – | > 100 µM (inactive) | > 100 µM (inactive) | > 100 µM (inactive) | 88.5 µM (inactive) | > 100 µM (inactive) | – | > 100 µM (inactive) | – | – | > 100 µM (inactive) |
| CCOP(=Nc1ccc(N(C)C)cc1)(OCC)OCC | > 100 µM (inactive) | > 100 µM (inactive) | > 100 µM (inactive) | > 100 µM (inactive) | – | > 100 µM (inactive) | > 100 µM (inactive) | > 100 µM (inactive) | > 100 µM (inactive) | > 100 µM (inactive) | > 100 µM (inactive) | > 100 µM (inactive) | – | – | – | > 100 µM (inactive) | > 100 µM (inactive) | > 100 µM (inactive) | > 100 µM (inactive) | > 100 µM (inactive) |
| CON(C)C(=O)C(Cc1ccccc1)NC(=O)OCc1ccccc1 (stereo unspecified) | > 100 µM (inactive) | > 100 µM (inactive) | > 100 µM (inactive) | 71.4 µM (inactive) | > 100 µM (inactive) | > 100 µM (inactive) | > 100 µM (inactive) | > 100 µM (inactive) | > 100 µM (inactive) | > 100 µM (inactive) | > 100 µM (inactive) | > 100 µM (inactive) | > 100 µM (inactive) | – | > 100 µM (inactive) | > 100 µM (inactive) | > 100 µM (inactive) | > 100 µM (inactive) | > 100 µM (inactive) | 75.5 µM (inactive) |
